Measured values published in PMC7822874, “Chemoprotective antimalarials identified through quantitative high-throughput screening of Plasmodium blood and liver stage parasites” (Scientific Reports, 2021).
Where two headings read alike, the source gives them in different places.

Test system: Plasmodium falciparum Dd2 asexual blood stage parasites
Test: microbe, parasite or virus in culture
Parameters: species or system Plasmodium falciparum Dd2 in human erythrocytes; single determination (one 11-point concentration-response curve)
Settings: Plasmodium falciparum, DD2, Erythrocyte, 72 h

Compound	AC50 (read-out: AC50) [µM]	AC50 [µM]
COc1ccc2nc(C[C@@H]3C[C@@H](C(C)C)[C@H](CNCc4cccnc4)C=C3C)[nH]c2n1 [NCGC00401578-01]	19.3	
CN(Cc1ccc(-n2cccn2)cc1)CC1CCN(CCc2ccc(F)cc2)CC1 [NCGC00425928-01]	10.6	
Cc1ccc(-n2ncc3c(NCc4ccco4)ncnc32)cc1C [MLS000622044-01]	15	
COC(=O)c1cnn(-c2ccc(C(=O)Nc3ccc(OC(F)(F)F)cc3)cc2)c1N [NCGC00137710-01]	4.73	
Cc1nc(CN2C(=O)OC3(CCN(C(=O)c4ccc(Oc5ccccc5)cc4)CC3)C2(C)c2ccccc2)cs1 (centres unmarked) [NCGC00415614-01]	13.3	
Cc1ccc(C)c(N2CCN(C(=O)c3cc([S+](=O)([O-])N4CCCCCC4)cn3C)CC2)c1 [NCGC00132413-01]	10.6	
COc1cc2nc(NCc3ccccc3)n3nc(-c4ccccc4)nc3c2cc1OC [NCGC00112829-01]	0.422	
Cc1ccc(C)c(NC(=O)CN(C)C(=O)c2cc3ccccc3o2)c1 [MLS000770584-01]	13.3	
CN1CCOc2c(C(=O)NCc3cccnc3)cc(-c3cccc4[nH]ccc34)cc21 [NCGC00416962-01]	8.63	
CC(C)c1nc2c(c(-c3ccc(O)cc3)n1)CN(Cc1cccc(F)c1)CC2 [NCGC00480376-01]	9.44	
CCN(CC)c1ccc(NC(=O)COc2ccccc2C#N)cc1S(=O)(=O)Nc1ccccc1OC [MLS000339599-01]	7.5	
Cc1cc(Nc2ccc(C)c(F)c2)n2ncnc2n1 [MLS000033310-01]	9.44	
COc1cc2c(C(=O)N3CCN(c4cc(Cl)ccc4C)CC3)cn(CC(C)C)c(=O)c2cc1OC [NCGC00103751-01]	15	
O=C(CN1CCC(n2nnc3cc(F)ccc32)CC1)Nc1ccccc1N1CCOCC1 [MLS000030185-01]	5.31	
CC(C)[S+](=O)([O-])N1CCC(N2CC(OCC3CC3)C23CCCCC3)CC1 (centres unmarked) [NCGC00463417-01]	15	
COc1ccc([S+](=O)([O-])NC[C@H]2C[C@@H]3CC[N@]2C[C@@H]3CN(C)Cc2ccccc2)cc1 [NCGC00400093-01]	4.73	
CCN1CCN(Cc2ccc(NC(=O)c3cc(NC(=O)C4=NN(c5ccccc5)C(=O)C4)cc(OC)c3)cc2C(F)(F)F)CC1 [MLS000911574-01]	8.41	
Cn1cccc1CN1CCCC2(Cc3ccccc3CNC2=O)C1 (centres unmarked) [NCGC00377565-01]	13.2	
O=C(NC1CC1)C1CCN(S(=O)(=O)c2ccc(Cl)cc2)CC1 [MLS001220436-01]	13.3	
N#CC1CCN(C(=O)c2nc(-c3cccc(C(F)(F)F)c3)c3cnccn23)CC1 [NCGC00476479-01]	16.8	
Cc1cccc(Oc2nc(-c3ccncc3)nc3ccccc23)c1 [MLS000769517-01]	7.5	
CCN(Cc1ccccc1)Cc1c(O)ccc2oc(C)c(C(=O)Nc3ccccc3C)c12 [NCGC00115715-01]	4.73	
CCN(CCCNC(=O)c1nn(-c2ccc(OC)c(Cl)c2)c(=O)c2c1c1ccccc1n2C)c1cccc(C)c1 [NCGC00108898-01]	15	
CCOC(=O)c1c(C)[nH]c(C)c1[S+](=O)([O-])N1CCCC(C(=O)N2CCN(c3cccc(C)c3C)CC2)C1 (centres unmarked) [NCGC00138103-01]	1.33	

Compound	AC50 (read-out: AC50) [µM]	AC50 [µM]
COc1ccc(Oc2nc(-c3ccccn3)nc3ccccc23)cc1 [MLS000769536-01]	2.99	
Cc1ccc(O)c(CN2CCCC(c3nc(CC(C)C)no3)C2)c1 (centres unmarked) [NCGC00443337-01]	9.44	
COc1ccc2cc1Nc1ccc(cc1)C[C@H](NCc1ccc(C)o1)C(=O)N(C)[C@@H](C(=O)NCc1ccccc1)C2 [NCGC00410280-01]	5.31	
COc1ccc(N2CCN(C(=O)CSc3nc(-c4ccc(C(C)C)cc4)no3)CC2)cc1 [NCGC00127936-01]	0.531	
COc1ccc2nc(N(Cc3cccnc3)C(=O)CCc3ccccc3)sc2c1 [NCGC00136611-01]	6.68	
CC(C)CCN1CCC(N2CCN([S+](=O)([O-])c3ccc4c(c3)CCCC4)CC2)C1=O (centres unmarked) [NCGC00472995-01]	9.44	
CCOc1ccc(NC(=O)Nc2cc(OCC(F)(F)F)cc(OCC(F)(F)F)c2)cc1 [MLS000391697-01]	13.3	
COc1ccc2cc1Nc1ccc(cc1)C[C@H](NC(=O)c1cccnc1)C(=O)N(C)[C@@H](C(=O)NCCOc1ccccc1)C2 [NCGC00410281-01]	4.22	
Cc1sc2[nH]c(-c3ccccn3)nc(=O)c2c1-c1ccccc1 [MLS000760132-01]	13.3	
CCc1ccc(Oc2c(C(F)(F)F)oc3c(CN4CCCC(C)C4)c(O)ccc3c2=O)cc1 (centres unmarked) [NCGC00101514-01]	1.33	
CC(C)Oc1ccc(C(=O)Nc2ccc3oc(-c4ccncc4)nc3c2)cc1 [NCGC00098730-01]	8.41	
O=C(N/N=C/c1ccc(OCc2ccccc2)cc1)c1ccco1 [MLS000769970-01]	13.3	
CCn1cc(C(=O)NCCCN2CCCC(C)C2)c(=O)c2cc([S+](=O)([O-])N(C)C3CCCCC3)ccc21 (centres unmarked) [NCGC00109162-01]	8.41	
Cc1ccc(-n2cc(CNCCc3nc(C)c[nH]3)c(-c3ccc(F)cc3)n2)cc1 [MLS000735387-01]	15	
COCCOc1ccnc(-c2noc([C@@H]3CCCN3Cc3cn(C)c4ccccc34)n2)c1 [NCGC00394869-01]	19.3	
O=C1N(c2ccccc2C(F)(F)F)O[C@@]1(c1ccccc1)C1CCCC1 [MLS002206604-01]	2.99	
COc1ccc2cc1Nc1ccc(cc1)C[C@H](NCc1ccc(C)o1)C(=O)N(C)[C@H](C(=O)NCCC(C)C)C2 [NCGC00410286-01]	5.96	
OC(CNCc1cccc(Br)c1)c1ccccc1 (centres unmarked) [MLS000676112-01]	5.96	
Cc1cccn2c(=O)c3cc(C(=O)NC(C)c4ccccc4)c(=N)n(CCOCCO)c3nc12 (centres unmarked) [NCGC00100488-01]	10.6	
CCOc1ccc(C(C)NC(S)=NC2CCCCC2)cc1OCC (centres unmarked) [MLS001007596-01]	0.211	
COc1cc(NC(=O)CSc2nc(-c3ccc(C(C)C)cc3)no2)cc(OC)c1 [NCGC00127914-01]	0.841	
CC1CCCN(Cc2c(O)ccc3c(=O)c(-c4ccc(Cl)cc4)c(C(F)(F)F)oc23)C1 (centres unmarked) [NCGC00100583-01]	0.841	
Cc1ccc(NC(=O)c2cnc(-c3ccccc3)nc2-c2ccncc2)c(Br)c1 [NCGC00426434-01]	9.44	
CCN1CCN(C(=O)c2ccc3c(c2)N(Cc2c(F)cccc2Cl)C(=O)c2ccccc2S3)CC1 [NCGC00108184-01]	0.00842	

Compound	AC50 (read-out: AC50) [µM]	AC50 [µM]
COc1ccc(C2Nc3ccccc3C(=O)N2Cc2ccccc2)cc1COc1ccc(Cl)cc1Cl (centres unmarked) [NCGC00165212-01]	8.41	
COc1ccc(C2CC(c3cccs3)=NN2C(=O)c2ccc(Br)o2)cc1 (centres unmarked) [MLS000663972-01]	5.31	
Nc1nonc1-n1nnc(C(=O)N/N=C/c2ccc(Cl)cc2)c1-c1ccc2c(c1)OCO2 [MLS001142698-01]	0.376	
Cc1c(O)c(CN(C)C)cc2c1oc(=O)c1ccccc12 [MLS000778334-01]	4.22	
Cc1cc(C(=O)Nc2cnn(Cc3ccc(Cl)cc3Cl)c2)no1 [MLS000087313-01]	9.44	
CN1CCN(c2nc(Nc3ccc(O)cc3)nc3ccccc23)CC1 [MLS000716977-01]	4.22	
COc1cccc(CN2CCC(N3CC(OCC4CC4)C34CCCCC4)CC2)n1 (centres unmarked) [NCGC00463412-01]	4.22	
COc1ccc(-c2csc3ncnc(N4CCN(S(=O)(=O)c5ccc(C(C)=O)cc5)CC4)c23)cc1 [MLS001160708-01]	4.22	
O=C(c1nnc(COc2ccc(OC(F)(F)F)cc2)n1-c1ccccc1)N1CCC[C@@H]1C(c1ccccc1)c1ccccc1 [NCGC00415795-01]	8.41	
CSc1cccc(Nc2nc3c([S+](=O)([O-])c4ccccc4)nnn3c3ccc(Cl)cc23)c1 [NCGC00112212-01]	1.88	
CCOc1ccccc1C(=O)N1CCN(C(=O)c2nnn3c2COC(c2ccccc2)C3)CC1 (centres unmarked) [NCGC00449179-01]	16.8	
NCCc1cccc(CN2CCCC(COc3ccccc3F)C2)c1 (centres unmarked) [NCGC00434821-01]	2.66	
CC(C)CN1C(=O)c2ccccc2C(C(=O)Nc2nccs2)C12CCCC2 (centres unmarked) [NCGC00423343-01]	8.41	
COc1ccc(NC(=O)c2c(C)oc3ccc(O)c(CN4CCCCCC4)c23)cc1Cl [NCGC00115677-01]	1.88	
O=C(C[n+]1c2n(c3ccccc31)CC(O)CS2)c1ccccc1 (centres unmarked) [MLS000687555-01]	10.6	
CN1CCN(C(=O)C2(N(C)CCc3ccccc3)Cc3ccccc3C2)CC1 [NCGC00438807-01]	2.66	
CC(=O)N1CCc2cc(Br)cc(S(=O)(=O)N3CCCCC3)c21 [MLS000936219-01]	5.96	
CCOC(=O)c1sc(NC(=O)C(C)Sc2nc(-c3ccccc3)cc(C(F)(F)F)n2)c(C(=O)OC)c1C (centres unmarked) [NCGC00101272-01]	2.37	
O=C1CC(c2ccccc2)N(C(=O)CNC(=O)c2n[nH]c3c2CCc2ccccc2-3)CCCCCCN1 (centres unmarked) [NCGC00467449-01]	2.99	
CCOC(=O)c1c(CN2CCCCC2)n(C)c2cc(Br)c(O)cc12 [MLS000523143-01]	7.5	
CC(=O)Nc1ccc(Nc2cc(C)nc(Nc3ccc(NC(C)=O)cc3)n2)cc1 [MLS001359830-01]	3.35	
Cc1ccc(O)c(CN2CCN(c3ccccc3)CC2)c1 [MLS000084753-01]	2.99	
Cc1ccc(C)c(OCCn2cc(C(=O)c3ccco3)c3ccccc32)c1 [NCGC00101856-01]		5.31
